Results from patent US12207673B2, “Compounds that modulate fatty acid receptor activity and pet food products containing the same” (MARS, INCORPORATED, priority 2014, dated 2025).

What was measured:
[1] = system: CHO/NatClytin/mock+Gα16 (mock) cells; assay: Mock control of the agonist/PAM assay with ATP as agonist; format: cell-based; conditions: concentration used as min signal in PAM mode
Procedure: CHO/NatClytin/fGpr120+Gα16 (fGpr120) cells and CHO/NatClytin/mock+Gα16 (mock) cells were seeded at 5,000 cells/well. 24 hours after cell seeding, cells were loaded with 0.5×Fluo8-NW dye in standard tyrode buffer (20 μl/well) for 1 h at room temperature. The ability of dodecyl dihydrogen phosphate to activate fGPR120 expressed by the CHO cells was determined by measuring fluorescence using a FLIPR® Tetra screening system after contacting the cells with the compound in agonist mode and PAM mode according to the following protocol: • 1. […] PAM mode: injection of 3× dodecyl dihydrogen phosphate (10 μl/well), wherein fluorescence was measured for 3 min. After about 1 additional minute, injection of 3× fGPR120 agonist at a concentration corresponding to the agonist's EC20 (15 μl/well), wherein fluorescence (i.e., PAM activity) was measured for 3 min. The fGPR120 agonist was 1.5 μM α-linolenic acid. For mock controls, 0.2μ ATP was used as the agonist.
Controls for PAM mode experiments—dose response curves of α-linolenic acid (fGpr120) or ATP (mock) (FIGS. 12A and 12B): 100 μM α-linolenic acid (max signal for Gpr120), 1.5 μM α-linolenic acid (EC20, min signal for Gpr120), 30 μM ATP (max signal), 0.2 μM ATP (EC20, min signal).

fGPR120 = fGPR120 agonist mode / PAM mode assay in CHO/NatClytin/fGpr120+Gα16 cells, Fluo8-NW, FLIPR Tetra; format: cell-based, feline
Procedure: Methods: CHO cells that stably express fGPR120 were used to assay dodecyl dihydrogen phosphate for activity as an fGPR120 agonist or PAM.
CHO/NatClytin/fGpr120+Gα16 (fGpr120) cells and CHO/NatClytin/mock+Gα16 (mock) cells were seeded at 5,000 cells/well. 24 hours after cell seeding, cells were loaded with 0.5×Fluo8-NW dye in standard tyrode buffer (20 μl/well) for 1 h at room temperature. The ability of dodecyl dihydrogen phosphate to activate fGPR120 expressed by the CHO cells was determined by measuring fluorescence using a FLIPR® Tetra screening system after contacting the cells with the compound in agonist mode and PAM mode according to the following protocol: • 1. […] For mock controls, 0.2μ ATP was used as the agonist.
The maximum of ΔF/F values measured using the FLIPR® Tetra system were exported and used for data analysis.
The compounds used in the experiments were dissolved 6× in 0.01% BSA (fatty acid-free) and then pre-mixed on compound plates with buffer.
Controls for agonist mode experiments—dose response curves of α-linolenic acid (FIGS. 12A and 12B): 100 μM α-linolenic acid (fGpr120 max signal), 30 μM ATP (max signal), buffer (min signal), buffer+0.01% BSA (min signal).

SMILES: Nc1ncnc2c1ncn2[C@@H]1O[C@H](COP(=O)(O)OP(=O)(O)OP(=O)(O)O)[C@@H](O)[C@H]1O [ATP]
- EC20 of ATP in mock cells [1]: 0.2 µM

SMILES: CC/C=C\C/C=C\C/C=C\CCCCCCCC(=O)O [Compound 24, (9Z,12Z,15Z)-octadeca-9,12,15-trienoic acid]
- EC20 of the fGPR120 agonist (fGPR120; fGpr120 cells, concentration used as min signal in PAM mode): 1.5 µM

SMILES: CCCCCCCCCCCCOP(=O)(O)O [dodecyl dihydrogen phosphate, Dodecyl dihydrogen phosphate]
- modulation of fGPR120 activity as positive allosteric modulator (PAM) (fGPR120; PAM mode, in the presence of an fGPR120 agonist (1.5 μM α-linolenic acid, EC20)): modulated the activity of fGPR120 as a PAM
